Several values for one entry are separate records, joined by “and”; a condition that tells them apart may be missing. Identical values can stand only once. Inconclusive results and toxic doses are left out. Cut-off read from the data, not from the text of the source: active = T/C of 150% or more; inactive = T/C below 125%.
System: L1210 leukemia ip in BDF1 mice, survival T/C
Experiment: NCI In Vivo Anticancer Drug Screen. Data for tumor model L1210 Leukemia (intraperitoneal) in B6D2F1 (BDF1) mice
Details: endpoint: mean survival time, higher = longer survival
Procedure, shortened: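 Read-out is survival time, reported as the treated-group measurement over the vehicle-control measurement.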

[1] = dose: 12.5 mg/kg/injection, schedule: Q04DX003 (ip), vehicle: saline with Tween-80
[2] = dose: 25.0 mg/kg/injection, schedule: Q04DX003 (ip), vehicle: saline with Tween-80
[3] = dose: 100.0 mg/kg/injection, schedule: Q04DX003 (ip), vehicle: saline
[4] = dose: 200.0 mg/kg/injection, schedule: Q04DX003 (ip), vehicle: saline
[5] = dose: 12.5 mg/kg/injection, schedule: Q04DX002 (ip), vehicle: Klucel (hydroxypropylcellulose) (HPC)
[6] = dose: 25.0 mg/kg/injection, schedule: Q04DX002 (ip), vehicle: Klucel (hydroxypropylcellulose) (HPC)
[7] = dose: 100.0 mg/kg/injection, schedule: Q01DX001 (ip), vehicle: saline
[8] = dose: 200.0 mg/kg/injection, schedule: Q01DX001 (ip), vehicle: saline
[9] = dose: 400.0 mg/kg/injection, schedule: Q01DX001 (ip), vehicle: saline
[10] = dose: 100.0 mg/kg/injection, schedule: Q04DX003 (ip), vehicle: saline with Tween-80
[11] = dose: 200.0 mg/kg/injection, schedule: Q04DX003 (ip), vehicle: saline with Tween-80
[12] = dose: 100.0 mg/kg/injection, schedule: Q01DX001 (ip), vehicle: Klucel (hydroxypropylcellulose) (HPC)
[13] = dose: 200.0 mg/kg/injection, schedule: Q01DX001 (ip), vehicle: Klucel (hydroxypropylcellulose) (HPC)
[14] = dose: 100.0 mg/kg/injection, schedule: Q01DX009 (ip), vehicle: saline with Tween-80
[15] = dose: 200.0 mg/kg/injection, schedule: Q01DX009 (ip), vehicle: saline with Tween-80
[16] = dose: 400.0 mg/kg/injection, schedule: Q01DX009 (ip), vehicle: saline with Tween-80
[17] = dose: 75.0 mg/kg/injection, schedule: Q01DX001 (ip), vehicle: acetone
[18] = dose: 100.0 mg/kg/injection, schedule: Q04DX003 (ip), vehicle: Klucel (hydroxypropylcellulose) (HPC)
[19] = dose: 200.0 mg/kg/injection, schedule: Q04DX003 (ip), vehicle: Klucel (hydroxypropylcellulose) (HPC)
[20] = dose: 25.0 mg/kg/injection, schedule: Q01DX009 (ip), vehicle: Klucel (hydroxypropylcellulose) (HPC)
[21] = dose: 50.0 mg/kg/injection, schedule: Q01DX009 (ip), vehicle: Klucel (hydroxypropylcellulose) (HPC)

Measured: T/C

CCCCNCCC(SSSC(CCNCCCC)c1ccc(Cl)cc1)c1ccc(Cl)cc1 (stereo unspecified)
inactive: dose: 6.25 mg/kg/injection, schedule: Q04DX003 (ip), vehicle: saline with Tween-80 103 % of control | [1] 88 % of control | [2] 91 % of control

CN1CCC=C(C(=O)N2c3ccccc3CCc3ccccc32)C1
inactive: dose: 50.0 mg/kg/injection, schedule: Q01DX009 (ip), vehicle: saline 107 % of control | dose: 100.0 mg/kg/injection, schedule: Q01DX009 (ip), vehicle: saline 95 % of control | [3] 103 % of control | [4] 92 % of control

COc1cc(C(=O)O/N=C(\N)CCl)cc(OC)c1OC
inactive: dose: 6.25 mg/kg/injection, schedule: Q04DX002 (ip), vehicle: Klucel (hydroxypropylcellulose) (HPC) 92 % of control | [5] 88 % of control | [6] 88 % of control

Cc1cn([C@@H]2C[C@H](CO)[C@@H](O)C2)c(=O)[nH]c1=O
inactive: [7] 105 % of control | [8] 110 % of control | [9] 107 % of control

CCCCCOC(=O)CN(CC(=O)OCCCCC)c1ccc(C=O)cc1
inactive: [10] 103 % of control | [11] 100 % of control | dose: 400.0 mg/kg/injection, schedule: Q04DX003 (ip), vehicle: saline with Tween-80 92 % of control

CSc1ncnc2c1ncn2NCC1OC(C)OCC1O (stereo unspecified)
inactive: [12] 96 % of control | [13] 98 % of control

OCCN1CCN(c2ccccc2)CC1
inactive: dose: 50.0 mg/kg/injection, schedule: Q04DX003 (ip), vehicle: saline 104 % of control | [3] 113 % of control | [4] 102 % of control

O=C(O)c1ccccc1CCl
inactive: [14] 101 % of control | [15] 108 % of control | [16] 95 % of control

CS(=O)(=O)c1ccc2nnnn2n1
inactive: dose: 6.25 mg/kg/injection, schedule: Q04DX003 (ip), vehicle: saline 100 % of control | dose: 12.5 mg/kg/injection, schedule: Q04DX003 (ip), vehicle: saline 103 % of control | dose: 25.0 mg/kg/injection, schedule: Q04DX003 (ip), vehicle: saline 100 % of control

CC(C)(C)C1([Si](C)(C)C)SCCCS1
inactive: dose: 100.0 mg/kg/injection, schedule: Q04DX002 (ip), vehicle: other 114 % of control | dose: 200.0 mg/kg/injection, schedule: Q04DX002 (ip), vehicle: other 108 % of control | dose: 400.0 mg/kg/injection, schedule: Q04DX002 (ip), vehicle: other 101 % of control

O=C(Nc1ccccc1)Oc1ccc(OCc2ccccc2)cc1
inactive: [1] 95 % of control | [2] 93 % of control | dose: 50.0 mg/kg/injection, schedule: Q04DX003 (ip), vehicle: saline with Tween-80 93 % of control

CCN(CC)CCN(CCN(CC)CC)c1ccc2ccccc2c1
inactive: [17] 111 % of control

Cc1ccc(NC(=S)NC(=O)c2ccco2)cc1Cl
inactive: dose: 100.0 mg/kg/injection, schedule: Q01DX009 (ip), vehicle: Klucel (hydroxypropylcellulose) (HPC) 101 % of control | [18] 102 % of control | dose: 200.0 mg/kg/injection, schedule: Q01DX009 (ip), vehicle: Klucel (hydroxypropylcellulose) (HPC) 106 % of control | [19] 98 % of control | dose: 400.0 mg/kg/injection, schedule: Q01DX009 (ip), vehicle: Klucel (hydroxypropylcellulose) (HPC) 102 % of control | dose: 400.0 mg/kg/injection, schedule: Q04DX003 (ip), vehicle: Klucel (hydroxypropylcellulose) (HPC) 98 % of control

O=C1C(OCc2ccccc2)=C(OCc2ccccc2)C(=O)c2ccccc21
inactive: [17] 91 % of control | dose: 150.0 mg/kg/injection, schedule: Q01DX001 (ip), vehicle: acetone 94 % of control | dose: 300.0 mg/kg/injection, schedule: Q01DX001 (ip), vehicle: acetone 90 % of control

O=C(O)c1ccsc1Cc1cccs1
inactive: [12] 101 % of control | [14] 97 % of control and 89 % of control | [13] 92 % of control | [15] 96 % of control and 100 % of control | dose: 400.0 mg/kg/injection, schedule: Q01DX001 (ip), vehicle: Klucel (hydroxypropylcellulose) (HPC) 106 % of control | [16] 93 % of control and 89 % of control

c1ccc2c(OCC3=NCCN3)cccc2c1
inactive: dose: 20.0 mg/kg/injection, schedule: Q01DX001 (ip), vehicle: Klucel (hydroxypropylcellulose) (HPC) 104 % of control | [20] 105 % of control | dose: 40.0 mg/kg/injection, schedule: Q01DX001 (ip), vehicle: Klucel (hydroxypropylcellulose) (HPC) 104 % of control | [21] 106 % of control | dose: 80.0 mg/kg/injection, schedule: Q01DX001 (ip), vehicle: Klucel (hydroxypropylcellulose) (HPC) 102 % of control | [12] 109 % of control

CCCCOc1ccc(CCOC(C)=O)cc1
inactive: dose: 100.0 mg/kg/injection, schedule: Q04DX002 (ip), vehicle: Klucel (hydroxypropylcellulose) (HPC) 112 % of control | dose: 200.0 mg/kg/injection, schedule: Q04DX002 (ip), vehicle: Klucel (hydroxypropylcellulose) (HPC) 108 % of control | dose: 400.0 mg/kg/injection, schedule: Q04DX002 (ip), vehicle: Klucel (hydroxypropylcellulose) (HPC) 104 % of control

Clc1nc2nc(C(Cl)(Cl)Cl)[nH]c2nc1Cl
inactive: dose: 6.25 mg/kg/injection, schedule: Q01DX009 (ip), vehicle: Klucel (hydroxypropylcellulose) (HPC) 103 % of control | dose: 12.5 mg/kg/injection, schedule: Q01DX009 (ip), vehicle: Klucel (hydroxypropylcellulose) (HPC) 102 % of control | [20] 115 % of control | [21] 105 % of control | [18] 97 % of control | [19] 100 % of control

O=c1nc2n(CCC[N+](=O)[O-])c3ccccc3nc-2c(=O)[nH]1
inactive: [7] 102 % of control | [3] 88 % of control | [8] 98 % of control | [4] 96 % of control | [9] 102 % of control | dose: 400.0 mg/kg/injection, schedule: Q04DX003 (ip), vehicle: saline 115 % of control

Cc1ccc(C(=O)C=Nc2ccccc2[N+](=O)[O-])cc1
inactive: [5] 105 % of control | [6] 108 % of control | dose: 50.0 mg/kg/injection, schedule: Q04DX002 (ip), vehicle: Klucel (hydroxypropylcellulose) (HPC) 123 % of control

O=[N+]([O-])c1ccc(C=Nc2cccc3ncccc23)s1
inactive: [18] 95 % of control | [19] 93 % of control

CCOC1(OCC)CCS(=O)(=O)C1c1ccccc1 (stereo unspecified)
inactive: dose: 100.0 mg/kg/injection, schedule: Q01DX001 (ip), vehicle: acetone 104 % of control | dose: 100.0 mg/kg/injection, schedule: Q01DX009 (ip), vehicle: acetone 98 % of control | dose: 200.0 mg/kg/injection, schedule: Q01DX001 (ip), vehicle: acetone 98 % of control | dose: 200.0 mg/kg/injection, schedule: Q01DX009 (ip), vehicle: acetone 104 % of control | dose: 400.0 mg/kg/injection, schedule: Q01DX001 (ip), vehicle: acetone 96 % of control | dose: 400.0 mg/kg/injection, schedule: Q01DX009 (ip), vehicle: acetone 100 % of control

CCOC(=O)C(C#N)c1cccc(C)c1 (stereo unspecified)
inactive: [10] 95 % of control | [11] 98 % of control

COc1ccc(C(=O)c2ccc([N+](=O)[O-])cc2)c(OC)c1
inactive: [12] 101 % of control | [13] 111 % of control

CCCc1cc(CCC)n2nc(N)nc2n1
inactive: dose: 50.0 mg/kg/injection, schedule: Q01DX009 (ip), vehicle: saline with Tween-80 100 % of control | [14] 98 % of control | [15] 96 % of control

NCCc1nc2ccccc2[nH]1
inactive: dose: 15.0 mg/kg/injection, schedule: Q01DX Z (ip), vehicle: saline 93 % of control | dose: 30.0 mg/kg/injection, schedule: Q01DX Z (ip), vehicle: saline 98 % of control | dose: 60.0 mg/kg/injection, schedule: Q01DX Z (ip), vehicle: saline 97 % of control | dose: 120.0 mg/kg/injection, schedule: Q01DX Z (ip), vehicle: saline 95 % of control | dose: 240.0 mg/kg/injection, schedule: Q01DX Z (ip), vehicle: saline 103 % of control | dose: 480.0 mg/kg/injection, schedule: Q01DX Z (ip), vehicle: saline 108 % of control

NC(=S)c1cccc(OCc2ccccc2)c1
inactive: [14] 106 % of control | [15] 92 % of control

Reference: PubChem BioAssay AID248 (DTP/NCI, 2004)
